Assay [1] deals with T1, Retinoic acid receptor RXR-alpha (Homo sapiens, UniProt P19793).
T1 sequence (P19793 whole entry): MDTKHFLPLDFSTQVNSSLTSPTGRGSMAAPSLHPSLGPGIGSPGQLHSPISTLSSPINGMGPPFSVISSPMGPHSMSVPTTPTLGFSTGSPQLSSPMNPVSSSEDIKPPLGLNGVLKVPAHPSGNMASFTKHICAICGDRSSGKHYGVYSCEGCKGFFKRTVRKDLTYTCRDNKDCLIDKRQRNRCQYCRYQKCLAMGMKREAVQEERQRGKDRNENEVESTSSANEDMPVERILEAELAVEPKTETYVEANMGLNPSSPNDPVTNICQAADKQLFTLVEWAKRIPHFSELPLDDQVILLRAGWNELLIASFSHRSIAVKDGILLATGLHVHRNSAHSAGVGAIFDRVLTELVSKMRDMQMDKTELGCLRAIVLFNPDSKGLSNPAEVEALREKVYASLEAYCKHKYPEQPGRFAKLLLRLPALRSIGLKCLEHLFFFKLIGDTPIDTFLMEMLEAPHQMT
In words: Transcriptional activation in CV-1 cells expressing Retinoid X receptor RXR-alpha. Type of assay: cell-based, Cercopithecidae.

Assay [2] has as its target T2, Retinoic acid receptor gamma (Homo sapiens) (UniProt P13631).
T2 sequence (whole entry): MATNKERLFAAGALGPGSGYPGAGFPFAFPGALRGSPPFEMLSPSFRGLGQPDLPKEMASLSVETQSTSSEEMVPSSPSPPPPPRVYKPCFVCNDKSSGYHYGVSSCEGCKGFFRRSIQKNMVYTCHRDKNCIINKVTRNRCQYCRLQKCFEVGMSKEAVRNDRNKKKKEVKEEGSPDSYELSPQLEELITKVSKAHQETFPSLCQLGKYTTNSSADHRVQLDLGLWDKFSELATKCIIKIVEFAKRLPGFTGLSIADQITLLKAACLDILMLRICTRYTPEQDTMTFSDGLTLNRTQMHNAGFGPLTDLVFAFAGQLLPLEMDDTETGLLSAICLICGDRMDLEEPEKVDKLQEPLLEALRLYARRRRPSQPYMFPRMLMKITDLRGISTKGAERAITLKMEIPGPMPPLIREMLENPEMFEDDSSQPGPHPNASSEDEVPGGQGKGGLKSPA
In words: Percent transcriptional activation of Retinoic acid receptor RAR gamma receptor at 1 uM compared to 1 uM trans-retinoic acid.

Assay [3] deals with T3, Retinoic acid receptor beta (Homo sapiens) (UniProt P10826).
T3 sequence (whole entry): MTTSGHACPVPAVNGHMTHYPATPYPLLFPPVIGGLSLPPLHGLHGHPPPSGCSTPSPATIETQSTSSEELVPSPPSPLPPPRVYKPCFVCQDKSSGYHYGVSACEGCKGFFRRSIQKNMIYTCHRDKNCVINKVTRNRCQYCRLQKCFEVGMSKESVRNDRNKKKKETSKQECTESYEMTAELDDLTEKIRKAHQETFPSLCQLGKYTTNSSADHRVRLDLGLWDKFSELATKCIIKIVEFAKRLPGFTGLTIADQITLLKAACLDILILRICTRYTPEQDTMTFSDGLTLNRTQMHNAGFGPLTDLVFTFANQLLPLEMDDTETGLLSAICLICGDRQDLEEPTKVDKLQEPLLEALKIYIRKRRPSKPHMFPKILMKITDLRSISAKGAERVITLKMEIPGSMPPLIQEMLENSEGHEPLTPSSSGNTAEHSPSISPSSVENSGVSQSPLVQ
In words: Percent transcriptional activation of Retinoic acid receptor beta at 1 uM compared to 1 uM trans-retinoic acid.

Assay [4] addresses T4, Retinoic acid receptor alpha (Homo sapiens) (UniProt P10276).
T4 sequence (whole entry): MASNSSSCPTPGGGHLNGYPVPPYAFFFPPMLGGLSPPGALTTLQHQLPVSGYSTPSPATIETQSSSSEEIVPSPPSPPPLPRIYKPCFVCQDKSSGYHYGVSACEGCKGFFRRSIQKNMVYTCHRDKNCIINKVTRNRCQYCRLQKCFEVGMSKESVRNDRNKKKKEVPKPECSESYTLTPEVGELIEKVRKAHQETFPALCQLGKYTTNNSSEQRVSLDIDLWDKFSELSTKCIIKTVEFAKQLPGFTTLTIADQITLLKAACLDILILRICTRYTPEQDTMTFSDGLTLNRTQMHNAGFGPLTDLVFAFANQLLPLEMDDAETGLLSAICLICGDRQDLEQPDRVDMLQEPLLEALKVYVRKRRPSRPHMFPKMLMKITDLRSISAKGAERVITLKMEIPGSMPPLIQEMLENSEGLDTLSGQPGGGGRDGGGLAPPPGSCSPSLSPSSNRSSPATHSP
In words: Percent transcriptional activation of Retinoic acid receptor RAR alpha at 1 uM compared to 1 uM trans-retinoic acid.

The subject of assay [5] is MDA-MB-231. The assay can be described thus: Inhibition of MDA-MB-231 cell proliferation after seven days at 12.5 uM. Type of assay: functional. Conditions: Homo sapiens, MDA-MB-231, 168 h.
Assay [6] relates to MDA-MB-231. The assay can be described thus: Inhibition of MDA-MB-231 cell proliferation after seven days. Conditions: Homo sapiens, MDA-MB-231, 168 h. Type of assay: functional, cell-based.
Assay [7] has as its system MDA-MB-231. In words: Effect on MDA-MB-231 cell proliferation with trans-RA; No inhibition. It counts as functional, cell-based. The conditions noted are these: Homo sapiens.
Assay [8] concerns MDA-MB-231. In words: Effect on MDA-MB-231 cell proliferation; No inhibition. The conditions noted are these: Homo sapiens. It counts as functional, cell-based.
The target in assay [9] is T1, Retinoic acid receptor RXR-alpha. The assay can be described thus: Transcriptional activation in CV-1 expressing retinoid X receptor RXR alpha.
In assay [10] the test system is MDA-MB-231. The assay can be described thus: Effect on MDA-MB-231 cell proliferation; No effect. Type of assay: functional, cell-based. Conditions: Homo sapiens.
The test system of assay [11] is MDA-MB-231. In words: Effect on MDA-MB-231 cell proliferation with compound 8; Significant inhibition. Type of assay: functional, cell-based. Conditions: Homo sapiens.

pIC50: −log10 of the molar value. Active and inactive are the calls of the source. The rule behind the calls is not given here.

The AC50 is the concentration giving half of the maximal activity seen. The molecule `CC(C)=C(c1ccc(C(=O)O)cc1)c1ccc2c(c1)C(C)(C)CCC2(C)C` showed a half-maximal activity concentration (AC50) in assay [1] of 160 nM. For the molecule `CC(C)/C=C(/c1ccc(C(=O)O)cc1)c1ccc2c(c1)C(C)(C)CCC2(C)C`, in assay [1], the AC50 was > 1000 nM. As usually defined, the inhibition is the change of the read-out against control, counted positive when it falls. In the case of `CC1=C(/C=C/C(C)=C\C=C\C(C)=C\C(=O)O)C(C)(C)CCC1` [ALITRETINOIN], the results for the Activation in assay [2], in assay [3] and in assay [4] were 126%, 112% and 105%, respectively. At 12.5 µM the inhibition with MDA-MB-231 [5] was 45%. One may read the pIC50 as the IC50 on a negative log10 scale, so that one unit is a factor of ten. In assay [1], `CC1(C)CCC(C)(C)c2cc(C(=C3CC3)c3ccc(C(=O)O)cc3)ccc21` showed an AC50 of 5 nM. This molecule also gave a pIC50 in the assay with MDA-MB-231 [6] of 5.96.

For `CC(C)=C(c1ccc(C(=O)O)cc1)c1cc2c(cc1C)C(C)(C)CCC2(C)C`, the AC50 in [1] turned out to be 22 nM. Besides, the outcome in the assay with MDA-MB-231 [7] and with MDA-MB-231 [8] was inactive. `Cc1cc2c(cc1C(=C1CC1)c1ccc(C(=O)O)cc1)C(C)(C)CCC2(C)C`: in assay [1], the concentration at half-maximal activity (AC50) is < 10 nM.

As for `CC1(C)CCC(C)(C)c2cc(-c3cccc4cc(C(=O)O)ccc34)ccc21`, the AC50 in assay [9] is > 1000 nM. `CC1=C(/C=C/C(C)=C/C=C/C(C)=C/C(=O)O)C(C)(C)CCC1`: the outcome with MDA-MB-231 [10] was inactive. Moreover, in the assay with MDA-MB-231 [11], the outcome was Active.

Source of the values: ChEMBL document CHEMBL1133192, “sp2-bridged diaryl retinoids: effects of bridge-region substitution on retinoid X receptor (RXR) selectivity” (Bioorg Med Chem Lett, 2000).
